Data as given in US8507464B2, “Phosphoramidate alkylator prodrugs” (Threshold Pharmaceuticals, Inc., priority 2005, dated 2013).
Where two headings read alike, the source gives them in different places.

System: NCI-H460 cells
Experiment: Antiproliferation assay (Alamar Blue), anoxia vs air
[1] = Homo sapiens, NCI-H460, 2 h, read-out: IC50 H460 Air, air, 2 h exposure
[2] = Homo sapiens, NCI-H460, 2 h, read-out: IC50 H460 Anoxia, anoxia, 2 h exposure
[3] = read-out: IC50 H460 Air, air, 2 h exposure
[4] = read-out: IC50 H460 Anoxia, anoxia, 2 h exposure

Row | SMILES | IC50 [1] [µM] | IC50 [2] [µM] | IC50 [3] [µM] | IC50 [4] [µM] | IC50 (read-out: IC50 H460 Anoxia) [µM]
1 | O=[N+]([O-])c1ncc(COP(=O)(NCCBr)NCCBr)n1CC(F)(F)F [Compound 90] | 3.4 | 0.01 | – | – | –
2 | Cn1c(COP(=O)(N2CC2)N2CC2)cnc1[N+](=O)[O-] [Compound 28] | 20 | 0.15 | – | – | –
3 | O=[N+]([O-])c1ccc(-c2ccc(OP3(=O)N(CCBr)CCN3CCBr)cc2)s1 [Compound 111] | 100 | 50 | – | – | –
4 | CCCn1c(COP(=O)(NCCCl)NCCCl)cnc1[N+](=O)[O-] [Compound 83] | > 100 | 0.3 | – | – | –
5 | CC(OP(=O)(NCCBr)NCCBr)c1ccc(-c2ccc([N+](=O)[O-])s2)cc1 (centres unmarked) [Compound 59] | 6 | 2 | – | – | –
6 | O=[N+]([O-])c1ccc(COP(=O)(N(CCCl)CCCl)N(CCCl)CCCl)o1 [Compound 143] | 3.5 | 4.5 | – | – | –
7 | O=[N+]([O-])c1ccc(COP(=O)(NCCOCCOCCNP(=O)(OCc2ccc([N+](=O)[O-])o2)N(CCCl)CCCl)N(CCCl)CCCl)o1 (centres unmarked) [Compound 140] | 65 | 5 | – | – | –
8 | CC(OP(=O)(NCCBr)NCCBr)c1ccc([N+](=O)[O-])o1 (centres unmarked) [Compound 105] | 1 | < 0.1 | – | – | –
9 | CC(OP(=O)(N[C@H](C)CCl)N[C@H](C)CCl)c1ccc([N+](=O)[O-])s1 (some centres unmarked) [Compound 93] | – | – | 3.8 | 0.1 | –
10 | Cn1c(COC(=O)NCCCOP(=O)(NCCBr)NCCBr)cnc1[N+](=O)[O-] [Compound 68] | > 100 | ≥ 100 | – | – | –
11 | Cn1c([N+](=O)[O-])nc(Br)c1-c1ccc(COP(=O)(NCCBr)NCCBr)cc1 [Compound 65] | – | – | 75 | 25 | –
12 | Cn1c(COP(=O)(OCc2cnc([N+](=O)[O-])n2C)N(CCCl)CCCl)cnc1[N+](=O)[O-] [Compound 145] | > 100 | > 100 | – | – | –
13 | CC(C)(C#Cc1ccc([N+](=O)[O-])s1)COP(N)(=O)N(CCCl)CCCl (centres unmarked) [Compound 115] | 5 | 0.5 | – | – | –
14 | O=[N+]([O-])c1ccc(COP(=O)(NCCBr)NCCBr)cc1F [Compound 79] | 3.5 | 3.5 | – | – | –
15 | C[C@H](CBr)NP(=O)(N[C@H](C)CBr)OCc1ccc([N+](=O)[O-])o1 [Compound 72] | 12 | 0.5 | – | – | –
16 | C[C@H](CCl)NP(=O)(N[C@H](C)CCl)OCc1ccc(-c2ccc([N+](=O)[O-])o2)cc1 [Compound 57] | – | – | – | – | 14
17 | CC(OP(=O)(NCCCl)NCCCl)c1ccc([N+](=O)[O-])o1 (centres unmarked) [Compound 104] | 12 | 0.4 | – | – | –
18 | Cn1c(CSCCCCOP(=O)(NCCBr)NCCBr)cnc1[N+](=O)[O-] [Compound 92] | > 100 | > 100 | – | – | –
19 | CC(C)[C@@H](CCl)NP(=O)(N[C@H](CCl)C(C)C)OCc1cnc([N+](=O)[O-])n1C [Compound 48] | > 100 | – | – | – | –
20 | CC(OP(=O)(NCCBr)NCCBr)c1ccc(OCc2ccc([N+](=O)[O-])o2)c([N+](=O)[O-])c1 (centres unmarked) [Compound 71] | 0.1 | 0.1 | – | – | –
21 | O=[N+]([O-])c1sc(COP(=O)(NCCCl)NCCCl)cc1Br [Compound 95] | 2.7 | – | – | – | –
22 | O=[N+]([O-])c1sc(COP(=O)(NCCBr)NCCBr)cc1Br [Compound 94] | 2 | 0.3 | – | – | –
23 | O=[N+]([O-])c1ccc(COP(=O)(NCCBr)NCCBr)cc1 [Compound 74] | > 100 | > 100 | – | – | –
24 | O=[N+]([O-])c1ccc(COP(=O)(NCCBr)NCCBr)c([N+](=O)[O-])c1 [Compound 75] | 26 | 9 | – | – | –
25 | CC(C)(C#Cc1ccc([N+](=O)[O-])cc1)OP(N)(=O)N(CCCl)CCCl (centres unmarked) [Compound 117] | 70 | 8 | – | – | –
26 | CC(C)[C@H](CCl)NP(=O)(N[C@@H](CCl)C(C)C)OCc1ccc([N+](=O)[O-])o1 [Compound 43] | 60 | 2 | – | – | –
27 | CN(CCCl)P(=O)(OCc1ccc(OCc2cnc([N+](=O)[O-])n2C)c(F)c1)N(C)CCCl [Compound 150] | 21 | – | – | – | –
